# From US9238055B2, “Peptide bone forming peptide 4 for promoting osteogenesis or vascularization and use thereof” (Chonnam National University Hospital, priority 2011, dated 2016)
# Where no end group is shown, it is not given here.
# System: mesenchymal stem cells
# Experiment: MTT assay for cytotoxicity
# Type: cell-based, mouse
# Conditions: at concentrations effective for promoting osteogenic differentiation; FIG. 3
# Procedure: At concentrations effective for calcium deposition, BFP 4 was analyzed for cytotoxicity. In this context, MTT ((3-(4,5-Dimethylthiazol-2-yl)-2,5-diphenyltetrazolium bromide, a yellow tetrazole) assay was performed using an MTT Cell Proliferation Assay Kit (Cayman Chemical) according to the instructions of the manufacturer.
sequence,measurement,value
"FFKATEVHFRSIRST [BFP 4, Phe-Phe-Lys-Ala-Thr-Glu-Val-His-Phe-Arg-Ser-Ile-Arg-Ser-Thr]",Cytotoxicity (MTT),no cytotoxicity was detected
